Laboratory results taken from patent US20240090547A1, “SWEETENER COMPOSITIONS COMPRISING MOGROSIDES AND USES THEREOF” (Firmenich Incorporated, priority 2021, published 2024).

Key:
Type in all cases: in vivo, human
panel of volunteers [1] = test: Sensory testing for sparkling orange beverage; details: sparkling orange beverage, 250 ppm (mogroside V 250 mg [sic]), average normalized score, 10-point scale; for Licorice Aftertaste / Lingering Sweetness / Mouth Coating / Overall Off-Taste: aftertaste; for Delayed Sweetness / Sweetness: in-mouth
Procedure: (§1) A panel of volunteers evaluated siamenoside I for in-mouth attributes (sweetness, delayed sweetness, sourness, bitterness, global flavor intensity, thickness/body, and astringence) and aftertaste (AT) attribtues (lingering sweetness, overall off-taste intensity, licorice off-tast, bitterness off-taste, and mouth coating) on a 10-point scale. Two replicate sessions were conducted, with a 20 minute break between sessions. There was a 90 second delay between samples within a session. Panelists evaluated all samples in a first session and evaluated the samples again a second time in a second session. Control samples of Rebaudioside M (Reb M) were evaluated during all sessions as a control. Mogroside V was also evaluated and sensory data for mogroside V is provided.
(§2) Data analysis was performed using 2-way analysis of variance (ANOVA) with interaction using Tukey's HSD test. The data was normalized for each attribute according to average scores for Reb M.
A panel of volunteers evaluated a sparkling orange beverage containing siamenodie I for in-mouth attributes and aftertaste attributes according to the methods described in Example 1 above.
The average normalized in-mouth attributes for a sample of sparkling orange beverage containing siamenoside I was evaluated and the results are provided below.
The average normalized aftertaste attributes for a sample of sparkling orange beverage containing siamenoside I was evaluated and the results are provided below.

panel of volunteers [2] = test: Sensory testing for lemon-lime carbonated soft drink; set-up: key to Sweetness / Delayed Sweetness / Bitterness / Lingering Sweetness / Overall Off-Taste / Licorice Aftertaste / Bitterness Aftertaste: 10-point scale; scores normalized to average Reb M scores; details: 600 ppm (mogroside V 600 mg [sic]), average normalized score, 10-point scale; for Bitterness Aftertaste / Licorice Aftertaste / Lingering Sweetness / Overall Off-Taste: aftertaste; for Bitterness / Delayed Sweetness / Global Flavor Intensity / Sweetness: in-mouth
Procedure: as §1, §2
A panel of volunteers evaluated the siamenoside I-containing lemon-lime carbonated soft drink for in-mouth attributes and aftertaste attributes according to the methods described in Example 1 above.
The average normalized in-mouth attributes for a sample of lemon-lime carbonated soft drink having […] was evaluated below.
The average normalized aftertaste attributes for a sample of lemon-lime carbonated soft drink having siamenoside I was evaluated below.

panel of volunteers [3] = test: Sensory testing for apple drink (panel, in-mouth and aftertaste attributes); set-up: key to Sweetness / Delayed Sweetness / Bitterness / Lingering Sweetness / Overall Off-Taste / Licorice Aftertaste / Bitterness Aftertaste / Mouth Coating: 10-point scale; normalized per attribute to average Reb M scores; details: 10-point scale; for Bitterness Aftertaste / Licorice Aftertaste / Lingering Sweetness / Overall Off-Taste / Mouth Coating: aftertaste; for Bitterness / Delayed Sweetness / Global Flavor Intensity / Sweetness / Thickness/Body: in-mouth, average normalized score
Procedure: as §1, §2
The average normalized in-mouth attributes for each sample of apple drink containing siamenoside I was evaluated below.
The average sweetness for each sample of apple drink containing siamenoside I was evaluated below.

panel of volunteers [4] = test: Sensory testing for vanilla milk; details: average normalized score, 10-point scale; for Licorice Aftertaste / Lingering Sweetness / Mouth Coating / Overall Off-Taste: aftertaste; for Astringence / Delayed Sweetness / Fattiness / Sourness / Sweetness / Bitterness / Global Flavor Intensity: in-mouth
Procedure: as §1, §2
A panel of volunteers evaluated vanilla milk for in-mouth attributes and aftertaste attributes according to the methods described in Example 1 above.
The average normalized in-mouth attributes for each sample of vanilla milk was evaluated and the results are provided below.
The average normalized aftertaste attributes for each sample of vanilla milk containing siamenoside I was evaluated and the results are provided below.

[5] = 250 ppm (mogroside V 250 mg [sic])
[6] = 500 ppm (mogroside V 500 mg [sic])
[7] = 200 ppm (mogroside V 200 mg [sic])
[8] = 400 ppm (mogroside V 400 mg [sic])

SMILES: C=C1C[C@@]23CC[C@H]4[C@@](C)(CCC[C@@]4(C)C(=O)O[C@@H]4O[C@H](CO)[C@@H](O)[C@H](O[C@@H]5O[C@H](CO)[C@@H](O)[C@H](O)[C@H]5O)[C@H]4O[C@@H]4O[C@H](CO)[C@@H](O)[C@H](O)[C@H]4O)[C@@H]2CC[C@]1(O[C@@H]1O[C@H](CO)[C@@H](O)[C@H](O[C@@H]2O[C@H](CO)[C@@H](O)[C@H](O)[C@H]2O)[C@H]1O[C@@H]1O[C@H](CO)[C@@H](O)[C@H](O)[C@H]1O)C3 [Reb M, Rebaudioside M]
- Licorice Aftertaste (panel of volunteers [1]): 2.2
- Lingering Sweetness (panel of volunteers [1]): 3.9
- Mouth Coating (panel of volunteers [1]): 2.5
- Overall Off-Taste (panel of volunteers [1]): 3.3
- Delayed Sweetness (panel of volunteers [1]): 3.3
- Sweetness (panel of volunteers [1]): 5.8
- Bitterness Aftertaste (panel of volunteers [2]): 1.4
- Licorice Aftertaste (panel of volunteers [2]): 2.5
- Lingering Sweetness (panel of volunteers [2]): 4.3
- Overall Off-Taste (panel of volunteers [2]): 3.6
- Bitterness (panel of volunteers [2]): 1.9
- Delayed Sweetness (panel of volunteers [2]): 3.3
- Global Flavor Intensity (panel of volunteers [2]): 4.8
- Sweetness (panel of volunteers [2]): 6.0
- Bitterness Aftertaste (panel of volunteers [3]; [5]): 1.1
- Licorice Aftertaste (panel of volunteers [3]; [5]): 2.0
- Lingering Sweetness (panel of volunteers [3]; [5]): 3.7
- Overall Off-Taste (panel of volunteers [3]; [5]): 2.9
- Bitterness (panel of volunteers [3]; [5]): 1.4
- Delayed Sweetness (panel of volunteers [3]; [5]): 2.5
- Global Flavor Intensity (panel of volunteers [3]; [5]): 4.0
- Sweetness (panel of volunteers [3]; [5]): 4.9
- Thickness/Body (panel of volunteers [3]; [5]): 1.5
- Licorice Aftertaste (panel of volunteers [3]; [6]): 2.2
- Lingering Sweetness (panel of volunteers [3]; [6]): 4.4
- Mouth Coating (panel of volunteers [3]; [6]): 2.2
- Overall Off-Taste (panel of volunteers [3]; [6]): 3.1
- Bitterness (panel of volunteers [3]; [6]): 1.3
- Delayed Sweetness (panel of volunteers [3]; [6]): 3.0
- Global Flavor Intensity (panel of volunteers [3]; [6]): 4.7
- Sweetness (panel of volunteers [3]; [6]): 6.1
- Thickness/Body (panel of volunteers [3]; [6]): 1.9
- Licorice Aftertaste (panel of volunteers [4]; [7]): 0.8
- Lingering Sweetness (panel of volunteers [4]; [7]): 2.6
- Mouth Coating (panel of volunteers [4]; [7]): 3.1
- Overall Off-Taste (panel of volunteers [4]; [7]): 1.8
- Astringence (panel of volunteers [4]; [7]): 0.6
- Delayed Sweetness (panel of volunteers [4]; [7]): 1.7
- Fattiness (panel of volunteers [4]; [7]): 3.3
- Sourness (panel of volunteers [4]; [7]): 0.7
- Sweetness (panel of volunteers [4]; [7]): 4.9
- Licorice Aftertaste (panel of volunteers [4]; [8]): 1.3
- Lingering Sweetness (panel of volunteers [4]; [8]): 3.8
- Mouth Coating (panel of volunteers [4]; [8]): 0.7
- Overall Off-Taste (panel of volunteers [4]; [8]): 2.1
- Astringence (panel of volunteers [4]; [8]): 0.6
- Bitterness (panel of volunteers [4]; [8]): 0.8
- Delayed Sweetness (panel of volunteers [4]; [8]): 2.2
- Fattiness (panel of volunteers [4]; [8]): 3.8
- Global Flavor Intensity (panel of volunteers [4]; [8]): 4.6
- Sourness (panel of volunteers [4]; [8]): 0.7
- Sweetness (panel of volunteers [4]; [8]): 6.6

SMILES: C[C@H](CC[C@@H](O[C@@H]1O[C@H](CO[C@@H]2O[C@H](CO)[C@@H](O)[C@H](O)[C@H]2O)[C@@H](O)[C@H](O)[C@H]1O[C@@H]1O[C@H](CO)[C@@H](O)[C@H](O)[C@H]1O)C(C)(C)O)[C@H]1CC[C@@]2(C)[C@@H]3CC=C4[C@@H](CC[C@H](O[C@@H]5O[C@H](CO[C@@H]6O[C@H](CO)[C@@H](O)[C@H](O)[C@H]6O)[C@@H](O)[C@H](O)[C@H]5O)C4(C)C)[C@]3(C)[C@H](O)C[C@]12C [mogroside V]
- Licorice Aftertaste (panel of volunteers [1]): 2.2
- Lingering Sweetness (panel of volunteers [1]): 3.6
- Mouth Coating (panel of volunteers [1]): 2.8
- Overall Off-Taste (panel of volunteers [1]): 2.9
- Delayed Sweetness (panel of volunteers [1]): 4.2
- Sweetness (panel of volunteers [1]): 5.1
- Bitterness Aftertaste (panel of volunteers [2]): 1.6
- Licorice Aftertaste (panel of volunteers [2]): 2.3
- Lingering Sweetness (panel of volunteers [2]): 3.6
- Overall Off-Taste (panel of volunteers [2]): 3.7
- Bitterness (panel of volunteers [2]): 2.0
- Delayed Sweetness (panel of volunteers [2]): 3.4
- Global Flavor Intensity (panel of volunteers [2]): 3.9
- Sweetness (panel of volunteers [2]): 5.0
- Bitterness Aftertaste (panel of volunteers [3]; [5]): 1.3
- Licorice Aftertaste (panel of volunteers [3]; [5]): 2.3
- Lingering Sweetness (panel of volunteers [3]; [5]): 2.5
- Overall Off-Taste (panel of volunteers [3]; [5]): 3.4
- Bitterness (panel of volunteers [3]; [5]): 1.6
- Delayed Sweetness (panel of volunteers [3]; [5]): 2.5
- Global Flavor Intensity (panel of volunteers [3]; [5]): 3.0
- Sweetness (panel of volunteers [3]; [5]): 3.4
- Thickness/Body (panel of volunteers [3]; [5]): 1.3
- Licorice Aftertaste (panel of volunteers [3]; [6]): 2.0
- Lingering Sweetness (panel of volunteers [3]; [6]): 3.8
- Mouth Coating (panel of volunteers [3]; [6]): 2.1
- Overall Off-Taste (panel of volunteers [3]; [6]): 2.9
- Bitterness (panel of volunteers [3]; [6]): 1.3
- Delayed Sweetness (panel of volunteers [3]; [6]): 3.1
- Global Flavor Intensity (panel of volunteers [3]; [6]): 4.1
- Sweetness (panel of volunteers [3]; [6]): 5.2
- Thickness/Body (panel of volunteers [3]; [6]): 1.6
- Licorice Aftertaste (panel of volunteers [4]; [7]): 0.8
- Lingering Sweetness (panel of volunteers [4]; [7]): 2.5
- Mouth Coating (panel of volunteers [4]; [7]): 2.9
- Overall Off-Taste (panel of volunteers [4]; [7]): 1.6
- Astringence (panel of volunteers [4]; [7]): 0.5
- Delayed Sweetness (panel of volunteers [4]; [7]): 1.9
- Fattiness (panel of volunteers [4]; [7]): 3.2
- Sourness (panel of volunteers [4]; [7]): 1.0
- Sweetness (panel of volunteers [4]; [7]): 5.0
- Licorice Aftertaste (panel of volunteers [4]; [8]): 1.1
- Lingering Sweetness (panel of volunteers [4]; [8]): 3.5
- Mouth Coating (panel of volunteers [4]; [8]): 0.9
- Overall Off-Taste (panel of volunteers [4]; [8]): 2.2
- Astringence (panel of volunteers [4]; [8]): 0.3
- Bitterness (panel of volunteers [4]; [8]): 1.2
- Delayed Sweetness (panel of volunteers [4]; [8]): 2.0
- Fattiness (panel of volunteers [4]; [8]): 3.5
- Global Flavor Intensity (panel of volunteers [4]; [8]): 4.2
- Sourness (panel of volunteers [4]; [8]): 0.9
- Sweetness (panel of volunteers [4]; [8]): 6.3
